Laboratory results: US8017350B2, “Glimepiride- and insulin-induced glycosylphosphatidylinositol-specific phospholipase C regulation” (Sanofi-Aventis Deutschland GmbH, priority 2004, dated 2011)

Assays:
[1] = Stability of compound 3; type: physicochemical; details: 4° C.
Description: As starting material, racemic 1,4,5,6-tetra-O-benzyl-myo-inositol (hereinafter: compound 1) was prepared by a procedure as disclosed in “Zhai, H.-X. et al. (1995) Tetrahedron Lett. 36: 7403-7406”. Compound 1 was then phosphorylated with dodecylphosphonic dichloride in the presence of triethylamine and dimethyl-aminopyridine to yield tetra-O-benzyl-myo-inositol-1,2-cyclo-dodecylphosphonic acid (hereinafter: compound 2). By catalytic hydrogenation with 10% Pd on charcoal, compound 2 was debenzylated to myo-inositol-1,2-cyclo-dodecylphosphonic acid (hereinafter: compound 3 or GPI-2350) as a mixture of diastereomers. For synthesis of compound 2 (FIG. 1), 1 g (1.8 mmol) of compound 1 was dissolved in 60 ml of methylene chloride and 1 ml of triethylamine; 200 mg dimethyl-aminopyridine and 1 g ([…]) of dodecylphosphonic dichloride were added. This reaction solution was allowed to stand (45 min, room temperature). Then 50 ml of ethyl acetate were added and the mixture was filtered on silica gel. After concentration of the solvent, the residue was purified by flash chromatography (n-heptane/ethyl acetate, 1/1, by vol.). Yield of compound 2: 580 mg (43%) of a white amorphous solid. TLC: n-heptane/ethyl acetate (1/1, by vol.), Rf=0.7. MS: (M+Li)^+=761.4, calculated […], M=754.9. […] MS: (M+Li)^+=401.2, calculated C18H35O7P, M=394.4.

[2] = tested on: GPI-PLC, rat adipocyte plasma membrane/DIGs; assay: Inhibition of adipocyte GPI-PLC (plasma membranes, lcDIGs or hcDIGs), substrate AChE; type: biochemical
[3] = tested on: cabbage PLD; assay: PLD assay ([14C]phosphatidylcholine); type: biochemical; details: 50 μM
Description: Hormone-sensitive lipase (HSL) and lipoprotein lipase (LPL) were measured using a radiolabeled triolein droplet emulsion as described in “Vertesy et al., (2002) Journal Antibiotics 55:480-494”. Pancreatic lipase (PL) was determined by incubation of 0.25 mmol tributyrin in 2 ml of 5 mM Tris/HCl (pH 6.5), 6 mM sodium taurodeoxycholate, 150 mM NaCl, 1 mM CaCl2 with porcine PL and colipase in the same buffer using a recording pH stat (stirring at 1000 rpm at 25° C.) with the pH adjusted to 6.5. PC-PLC was assayed by incubation of 0.2 ml of 10 mM dipalmitoyllecithin, 0.1 ml of 10 mM SDC and 0.1 ml of 0.03 M CaCl2 with bacterial PC-PLC (in 50 mM Tris/HCl, pH 7.5, 0.1% BSA) for 10 min at 37° C. The reaction was terminated by addition of 0.1 ml of 50% TCA and subsequently of 2.5 ml of […]. After centrifugation (1500×g, 15 min), 0.2-ml portions of the upper methanol/water phase (˜1.33 ml) were removed, supplemented with 0.5 ml of 60% HClO4, then heated at 170° C. for 1 h and finally analyzed for inorganic phosphate. Mammalian PI-PLC was measured by incubation of 0.1 ml of 10 mM PI, 0.1 ml of 0.8% sodium deoxycholate, 0.1% BSA, 0.2 ml of 100 mM sodium borate (pH 7.5) and rat liver PI-PLC for 20 min at 37° C. The reaction was terminated and further processed as described for the PC-PLC. […] Radioactive phosphatidic acid was detected by phosphorimaging. […]

CCCCCCCCCCCCP1(=O)O[C@@H]2[C@H](O)[C@@H](O)[C@H](O)[C@@H](O)[C@@H]2O1 (stereo partly drawn) [GPI-2350, myo-inositol-1,2-cyclo-dodecylphosphonic acid]
stability as dried amorphous solid [1]: as dried amorphous solid for years at 4 °C | inhibition in words [2]: potent inhibitor | effect on PLD [3]: not significantly affected
